Measured values reported in ChEMBL document CHEMBL1201862, “PubChem BioAssay data set” (2004).
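Grown in 96-well plates, cells were treated for 48 hours with each compound at five concentrations. Insufficient inhibition: endpoint recorded as highest concentration tested. At the GI50, growth is halved.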 Activity calls are given as the source filed them. Cut-off read from the data, not from the text of the source: active = GI50 up to about 1.1 µM and inactive = higher.

Assays:
Assay in all cases: DTP human tumour cell line panel, 48 h
COLO 205 = tested on: COLO 205
DMS-114 = tested on: DMS-114
HCT-15 = tested on: HCT-15
HL-60 = tested on: HL-60
HOP-62 = tested on: HOP-62
HOP-92 = tested on: HOP-92
K562 = tested on: K562
KM-20L2 = tested on: KM-20L2
M19-MEL = tested on: M19-MEL
NCI-H460 = tested on: NCI-H460
RPMI-8226 = tested on: RPMI-8226
RXF 393 = tested on: RXF 393
SNB-75 = tested on: SNB-75
SW-620 = tested on: SW-620
UACC-62 = tested on: UACC-62
UO-31 = tested on: UO-31
SK-MEL-28 = tested on: SK-MEL-28

| SMILES | GI50 (COLO 205) | GI50 (DMS-114) | GI50 (HCT-15) [µM] | GI50 (HL-60) | GI50 (HOP-62) | GI50 (HOP-92) | GI50 (K562) | GI50 (KM-20L2) | GI50 (M19-MEL) | GI50 (NCI-H460) | GI50 (RPMI-8226) | GI50 (RXF 393) | GI50 (SNB-75) | GI50 (SW-620) | GI50 (UACC-62) | GI50 (UO-31) | GI50 (SK-MEL-28) |
| --- | --- | --- | --- | --- | --- | --- | --- | --- | --- | --- | --- | --- | --- | --- | --- | --- | --- |
| CC1=C(C)CC2(SC1)C(=O)c1ccccc1C2=O | > 100 µM (inactive) | > 100 µM (inactive) | > 100 | > 100 µM (inactive) | > 100 µM (inactive) | 65.8 µM (inactive) | > 100 µM (inactive) | > 100 µM (inactive) | > 100 µM (inactive) | > 100 µM (inactive) | > 100 µM (inactive) | > 100 µM (inactive) | > 100 µM (inactive) | > 100 µM (inactive) | > 100 µM (inactive) | 66.1 µM (inactive) |  |
| CC(=O)n1c2c(c(=O)n1-c1ccccc1)[S+]([O-])CCC2 (centres undefined) | > 100 µM (inactive) | 35.9 µM (inactive) | 21.7 | 24.4 µM (inactive) | 11.1 µM (inactive) |  | 26.7 µM (inactive) | > 71.6 µM (inactive) | 29.6 µM (inactive) | 16.7 µM (inactive) | 6.08 µM (inactive) | 15.6 µM (inactive) | 51.4 µM (inactive) | 33.3 µM (inactive) | 20.3 µM (inactive) | > 100 µM (inactive) | > 100 µM (inactive) |
| COc1ccc(-c2ccccc2)c2[nH]c3c(c12)CCNC3=O | > 100 µM (inactive) |  | > 100 | > 100 µM (inactive) | > 100 µM (inactive) | > 100 µM (inactive) | > 100 µM (inactive) | > 100 µM (inactive) | > 100 µM (inactive) | > 100 µM (inactive) | > 100 µM (inactive) | 45.6 µM (inactive) | > 100 µM (inactive) | > 100 µM (inactive) | > 100 µM (inactive) | > 100 µM (inactive) |  |
| COc1ccccc1CCc1cc(OC)c(OC)c(OC)c1 | 42.2 µM (inactive) | 41.6 µM (inactive) | 36.1 | 11 µM (inactive) | > 100 µM (inactive) | 26.8 µM (inactive) | 33 µM (inactive) | 55.8 µM (inactive) | 48.3 µM (inactive) | 44.1 µM (inactive) | 20.2 µM (inactive) | 20.9 µM (inactive) | 41.6 µM (inactive) | 47.5 µM (inactive) | 65 µM (inactive) | 22.9 µM (inactive) | 65.6 µM (inactive) |
| CC(=O)NC(CCCCNC(=O)N(CCCl)N=O)C(=O)NCc1ccccc1 (centres undefined) | > 100 µM (inactive) | > 100 µM (inactive) | > 100 | > 100 µM (inactive) | > 100 µM (inactive) | > 100 µM (inactive) | > 100 µM (inactive) | > 100 µM (inactive) | > 100 µM (inactive) | 28.6 µM (inactive) | > 100 µM (inactive) |  | 27.2 µM (inactive) | > 100 µM (inactive) | > 100 µM (inactive) | > 100 µM (inactive) | > 100 µM (inactive) |
| CCOC(=O)C1Cc2c(ccc(OC)c2OC)C(=O)C1N (centres undefined) | > 100 µM (inactive) | > 100 µM (inactive) | > 100 | > 100 µM (inactive) | > 100 µM (inactive) | > 100 µM (inactive) | > 100 µM (inactive) | > 100 µM (inactive) | > 100 µM (inactive) | > 100 µM (inactive) | > 100 µM (inactive) | > 100 µM (inactive) | > 100 µM (inactive) | > 100 µM (inactive) | > 100 µM (inactive) | > 100 µM (inactive) | > 100 µM (inactive) |
| O=C1CC2C=CC1C2CO (centres undefined) | > 100 µM (inactive) | > 100 µM (inactive) | > 100 | > 100 µM (inactive) | > 100 µM (inactive) | > 100 µM (inactive) |  | > 100 µM (inactive) | > 100 µM (inactive) | > 100 µM (inactive) | > 100 µM (inactive) | > 100 µM (inactive) | > 100 µM (inactive) | > 100 µM (inactive) | > 100 µM (inactive) | > 100 µM (inactive) | > 100 µM (inactive) |
| COc1ccc(-c2cc(O)c3cc4c(cc3n2)OCO4)cc1OC | > 100 µM (inactive) | > 100 µM (inactive) | > 100 | > 100 µM (inactive) | > 100 µM (inactive) | > 100 µM (inactive) | > 100 µM (inactive) | > 100 µM (inactive) | > 100 µM (inactive) | > 100 µM (inactive) | > 100 µM (inactive) | > 100 µM (inactive) | > 100 µM (inactive) | > 100 µM (inactive) | > 100 µM (inactive) | > 100 µM (inactive) | > 100 µM (inactive) |
| COc1ccc(NC(=O)CSc2nnc(-c3ccc(NC(C)=O)cc3)o2)cc1 | 19.4 µM (inactive) | 5.6 µM (inactive) | 11.2 | 21.9 µM (inactive) | 34.1 µM (inactive) |  | 21.4 µM (inactive) | 19.5 µM (inactive) | 21 µM (inactive) | 15.5 µM (inactive) |  | 14.5 µM (inactive) | 63.1 µM (inactive) |  | 16.5 µM (inactive) | 17.7 µM (inactive) | 18.7 µM (inactive) |
